Results taken from PubChem BioAssay (NCI).
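All cell lines were grown in 96-well plates and treated with compound for 48 hours. GI50: concentration for 50% inhibition of growth. TGI: concentration producing complete growth inhibition.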

Tests used:
Assay in all cases: growth of human tumour cells (NCI), 48 h
HT29 colon = test system: HT29 colon
UACC-257 melanoma = test system: UACC-257 melanoma
MOLT-4 leukemia = test system: MOLT-4 leukemia
BT-549 breast = test system: BT-549 breast
HCC-2998 colon = test system: HCC-2998 colon
MALME-3M melanoma = test system: MALME-3M melanoma
RPMI-8226 leukemia = test system: RPMI-8226 leukemia
EKVX NSCLC = test system: EKVX NSCLC
RXF 393 renal = test system: RXF 393 renal
SNB-19 CNS = test system: SNB-19 CNS
ACHN renal = test system: ACHN renal
NCI-H460 lung = test system: NCI-H460 lung
OVCAR-8 ovarian = test system: OVCAR-8 ovarian
HS 578T breast = test system: HS 578T breast
NCI-H226 lung = test system: NCI-H226 lung
OVCAR-3 ovarian = test system: OVCAR-3 ovarian
SW-620 colon = test system: SW-620 colon
MCF7 breast = test system: MCF7 breast
HCT-15 colon = test system: HCT-15 colon
UACC-62 melanoma = test system: UACC-62 melanoma
NCI-H522 lung = test system: NCI-H522 lung
TK-10 renal = test system: TK-10 renal
M14 melanoma = test system: M14 melanoma
OVCAR-5 ovarian = test system: OVCAR-5 ovarian
HOP-62 NSCLC = test system: HOP-62 NSCLC
CCRF-CEM leukemia = test system: CCRF-CEM leukemia
HOP-92 NSCLC = test system: HOP-92 NSCLC
IGROV1 ovarian = test system: IGROV1 ovarian
MDA-MB-468 breast = test system: MDA-MB-468 breast
KM12 colon = test system: KM12 colon
SN12C renal = test system: SN12C renal
HL-60(TB) leukemia = test system: HL-60(TB) leukemia
NCI-H23 lung = test system: NCI-H23 lung
K-562 leukemia = test system: K-562 leukemia
MDA-MB-435 = test system: MDA-MB-435
NCI/ADR-RES ovarian = test system: NCI/ADR-RES ovarian
A498 renal = test system: A498 renal
SF-268 CNS = test system: SF-268 CNS
786-0 renal = test system: 786-0 renal
SF-295 CNS = test system: SF-295 CNS
SK-OV-3 ovarian = test system: SK-OV-3 ovarian
PC-3 prostate = test system: PC-3 prostate
COLO 205 colon = test system: COLO 205 colon
U251 CNS = test system: U251 CNS
T-47D breast = test system: T-47D breast
SK-MEL-5 melanoma = test system: SK-MEL-5 melanoma
DU-145 prostate = test system: DU-145 prostate
SK-MEL-28 melanoma = test system: SK-MEL-28 melanoma
A549 NSCLC = test system: A549 NSCLC
SF-539 CNS = test system: SF-539 CNS
CAKI-1 renal = test system: CAKI-1 renal
SR leukemia = test system: SR leukemia
LOX IMVI melanoma = test system: LOX IMVI melanoma
OVCAR-4 ovarian = test system: OVCAR-4 ovarian
HCT-116 colon = test system: HCT-116 colon

O=C1N/C(=N\c2nccs2)S/C1=C\c1ccc([N+](=O)[O-])cc1
GI50 (HT29 colon): 18.5 µM
TGI (HT29 colon): > 100 µM
GI50 (UACC-257 melanoma): 12.4 µM
TGI (UACC-257 melanoma): 32.5 µM
GI50 (MOLT-4 leukemia): 2.54 µM
TGI (MOLT-4 leukemia): 7.5 µM
GI50 (BT-549 breast): 6.87 µM
TGI (BT-549 breast): 41.4 µM
GI50 (HCC-2998 colon): 6.93 µM
TGI (HCC-2998 colon): 30.4 µM
GI50 (MALME-3M melanoma): 11.2 µM
TGI (MALME-3M melanoma): 27.2 µM
GI50 (RPMI-8226 leukemia): 3.56 µM
TGI (RPMI-8226 leukemia): 31.6 µM
GI50 (EKVX NSCLC): 4.71 µM
TGI (EKVX NSCLC): 27.8 µM
GI50 (RXF 393 renal): 12.4 µM
TGI (RXF 393 renal): 46.3 µM
GI50 (SNB-19 CNS): 3.58 µM
TGI (SNB-19 CNS): 70.6 µM
GI50 (ACHN renal): 5.49 µM
TGI (ACHN renal): 35.2 µM
GI50 (NCI-H460 lung): 4.12 µM
TGI (NCI-H460 lung): 19.7 µM
GI50 (OVCAR-8 ovarian): 6.43 µM
TGI (OVCAR-8 ovarian): 68.9 µM
GI50 (HS 578T breast): 11.6 µM
TGI (HS 578T breast): 81.6 µM
GI50 (NCI-H226 lung): 12.5 µM
TGI (NCI-H226 lung): 68.2 µM
GI50 (OVCAR-3 ovarian): 4.73 µM
TGI (OVCAR-3 ovarian): 29.4 µM
GI50 (SW-620 colon): 4.77 µM
TGI (SW-620 colon): > 100 µM
GI50 (MCF7 breast): 4.44 µM
TGI (MCF7 breast): 20.4 µM
GI50 (HCT-15 colon): 4.29 µM
TGI (HCT-15 colon): > 100 µM
GI50 (UACC-62 melanoma): 5.08 µM
TGI (UACC-62 melanoma): 23.1 µM
GI50 (NCI-H522 lung): 7.47 µM
TGI (NCI-H522 lung): 33.9 µM
GI50 (TK-10 renal): 12.8 µM
TGI (TK-10 renal): 59.3 µM
GI50 (M14 melanoma): 9.86 µM
TGI (M14 melanoma): 39.6 µM
GI50 (OVCAR-5 ovarian): 16.1 µM
TGI (OVCAR-5 ovarian): 95.6 µM
GI50 (HOP-62 NSCLC): 6.77 µM
TGI (HOP-62 NSCLC): 60.7 µM
GI50 (CCRF-CEM leukemia): 3.84 µM
TGI (CCRF-CEM leukemia): 32.5 µM
GI50 (HOP-92 NSCLC): 4.46 µM
TGI (HOP-92 NSCLC): 38.3 µM
GI50 (IGROV1 ovarian): 6.89 µM
TGI (IGROV1 ovarian): 30.8 µM
GI50 (MDA-MB-468 breast): 4.62 µM
TGI (MDA-MB-468 breast): 25.8 µM
GI50 (KM12 colon): 5.91 µM
TGI (KM12 colon): 32.4 µM
GI50 (SN12C renal): 5.47 µM
TGI (SN12C renal): 63.5 µM
GI50 (HL-60(TB) leukemia): 3.62 µM
TGI (HL-60(TB) leukemia): 24.5 µM
GI50 (NCI-H23 lung): 6.8 µM
TGI (NCI-H23 lung): 70 µM
GI50 (K-562 leukemia): 4.24 µM
TGI (K-562 leukemia): > 100 µM
GI50 (MDA-MB-435): 12 µM
TGI (MDA-MB-435): > 100 µM
GI50 (NCI/ADR-RES ovarian): 5.03 µM
TGI (NCI/ADR-RES ovarian): 37.3 µM
GI50 (A498 renal): 14.5 µM
TGI (A498 renal): 39.8 µM
GI50 (SF-268 CNS): 10.1 µM
TGI (SF-268 CNS): > 100 µM
GI50 (786-0 renal): 6.17 µM
TGI (786-0 renal): 72.9 µM
GI50 (SF-295 CNS): 5.11 µM
TGI (SF-295 CNS): 40.5 µM
GI50 (SK-OV-3 ovarian): 15.7 µM
TGI (SK-OV-3 ovarian): 63.9 µM
GI50 (PC-3 prostate): 5.98 µM
TGI (PC-3 prostate): > 100 µM
GI50 (COLO 205 colon): 7.7 µM
TGI (COLO 205 colon): 23.9 µM
GI50 (U251 CNS): 4.6 µM
TGI (U251 CNS): > 100 µM
GI50 (T-47D breast): 5.05 µM
TGI (T-47D breast): 53.1 µM
GI50 (SK-MEL-5 melanoma): 7.45 µM
TGI (SK-MEL-5 melanoma): 20.2 µM
GI50 (DU-145 prostate): 11.9 µM
TGI (DU-145 prostate): > 100 µM
GI50 (SK-MEL-28 melanoma): 14 µM
TGI (SK-MEL-28 melanoma): > 100 µM
GI50 (A549 NSCLC): 4.89 µM
TGI (A549 NSCLC): > 100 µM
GI50 (SF-539 CNS): 5.62 µM
TGI (SF-539 CNS): 26.9 µM
GI50 (CAKI-1 renal): 12.7 µM
TGI (CAKI-1 renal): 82.8 µM
GI50 (SR leukemia): 3.41 µM
TGI (SR leukemia): 18 µM
GI50 (LOX IMVI melanoma): 4.75 µM
TGI (LOX IMVI melanoma): 34.2 µM
GI50 (OVCAR-4 ovarian): 7.01 µM
TGI (OVCAR-4 ovarian): 67.5 µM
GI50 (HCT-116 colon): 4.44 µM
TGI (HCT-116 colon): 19 µM
